According to ChEMBL document CHEMBL1201862, “PubChem BioAssay data set” (2004):
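Five compound concentrations were applied to cells in 96-well plates for 48 hours; endpoints were derived by simple linear interpolation of the resulting dose-response curve. GI50 = concentration required for 50% inhibition of growth.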 Calls of active or inactive are those of the source. No stated cut-off is given here; in the data, active = GI50 up to about 1.1 µM and inactive = higher.

Experiments:
Test in all cases: NCI tumour cell line growth inhibition, 48 h
HT-29 = system: HT-29
DU-145 = system: DU-145
Hs-578T = system: Hs-578T
Malme-3M = system: Malme-3M
MCF7 = system: MCF7
A498 = system: A498
SK-OV-3 = system: SK-OV-3
U-251 = system: U-251
SK-MEL-2 = system: SK-MEL-2
T47D = system: T47D
NCI/ADR-RES = system: NCI/ADR-RES
M14 = system: M14
SK-MEL-28 = system: SK-MEL-28
HOP-92 = system: HOP-92
SR = system: SR
OVCAR-5 = system: OVCAR-5
HOP-62 = system: HOP-62
COLO 205 = system: COLO 205
HCC 2998 = system: HCC 2998

Measured: GI50

CC(C)C(C)/C=C\C(C)C1CCC2C3=CC=C4CC(O)CCC4(C)C3CCC21C (stereo not given)
inactive: HT-29 33.3 µM | DU-145 51.6 µM | Hs-578T > 41.3 µM | Malme-3M > 34.7 µM | MCF7 30.2 µM | A498 > 85.5 µM | SK-OV-3 > 100 µM | U-251 > 31.8 µM | SK-MEL-2 > 62.1 µM | T47D 81.5 µM | NCI/ADR-RES > 41.3 µM | M14 > 46.8 µM | SK-MEL-28 > 41.7 µM | HOP-92 5.75 µM | SR 34.4 µM | OVCAR-5 > 100 µM | HOP-62 > 51.1 µM | COLO 205 43.9 µM

N#CCN1c2ccccc2CCC1Cl (stereo not given)
inactive: HT-29 > 10 µM | DU-145 > 10 µM | Hs-578T > 10 µM | Malme-3M > 10 µM | MCF7 > 10 µM | A498 > 10 µM | SK-OV-3 > 10 µM | U-251 > 10 µM | T47D > 10 µM | NCI/ADR-RES > 10 µM | HCC 2998 > 10 µM | M14 > 10 µM | SK-MEL-28 > 10 µM | HOP-92 > 10 µM | SR > 10 µM | OVCAR-5 > 10 µM | HOP-62 > 10 µM | COLO 205 > 10 µM

O=C(Cc1nccc2c1[nH]c1ccccc12)OC1C#CCSCC#C/C=C\1 (stereo not given)
inactive: HT-29 > 100 µM | DU-145 > 100 µM | Hs-578T > 100 µM | Malme-3M > 100 µM | MCF7 > 100 µM | A498 78.5 µM | SK-OV-3 > 100 µM | U-251 > 100 µM | T47D 72.1 µM | NCI/ADR-RES > 100 µM | HCC 2998 > 100 µM | M14 > 100 µM | SK-MEL-28 > 100 µM | HOP-92 > 100 µM | SR > 100 µM | HOP-62 > 100 µM | COLO 205 52.1 µM

O=c1[nH]c2ccc(C(F)(F)F)cc2nc1Cc1ccccc1
inactive: HT-29 25.4 µM | DU-145 34.4 µM | Hs-578T 22.3 µM | MCF7 28.7 µM | A498 26.6 µM | SK-OV-3 44.9 µM | U-251 45.7 µM | SK-MEL-2 24.7 µM | T47D 40.5 µM | NCI/ADR-RES 18.5 µM | HCC 2998 24.1 µM | M14 29.9 µM | SK-MEL-28 39.7 µM | HOP-92 18.7 µM | SR > 100 µM | HOP-62 33 µM | COLO 205 18.1 µM

COc1cccc(N(CN2C(=O)CCC2OC)C(C)=O)c1 (stereo not given)
inactive: HT-29 > 100 µM | DU-145 > 100 µM | Hs-578T > 100 µM | MCF7 > 100 µM | A498 > 100 µM | SK-OV-3 > 100 µM | U-251 > 100 µM | SK-MEL-2 > 100 µM | T47D > 100 µM | NCI/ADR-RES > 100 µM | HCC 2998 > 100 µM | M14 > 100 µM | SK-MEL-28 > 100 µM | HOP-92 > 100 µM | SR > 100 µM | OVCAR-5 > 100 µM | HOP-62 > 100 µM | COLO 205 > 100 µM

CCOC(=O)Nc1ccc2c(c1)c(CCCCCCc1nc3ccccc3c3ccc(NC(=O)OCC)cc13)nc1ccccc12
inactive: HT-29 > 100 µM | DU-145 > 100 µM | Hs-578T > 100 µM | Malme-3M > 10 µM | MCF7 > 100 µM | A498 31.3 µM | SK-OV-3 31.8 µM | SK-MEL-2 29.9 µM | T47D > 100 µM | NCI/ADR-RES 41.2 µM | HCC 2998 > 100 µM | M14 29.1 µM | SK-MEL-28 52.6 µM | HOP-92 21.8 µM | SR > 100 µM | OVCAR-5 > 100 µM | HOP-62 27.7 µM | COLO 205 > 100 µM

COc1cc(S(=O)(=O)Nc2ccc(-c3csc(N4C(=O)C(Cl)C4c4cccc(Oc5ccccc5)c4)n3)cc2)ccc1Cl (stereo not given)
inactive: HT-29 49.5 µM | DU-145 21.7 µM | Hs-578T > 100 µM | Malme-3M > 100 µM | MCF7 37.7 µM | A498 25.2 µM | SK-OV-3 > 100 µM | SK-MEL-2 31 µM | T47D 24.4 µM | NCI/ADR-RES > 100 µM | HCC 2998 > 100 µM | M14 22.9 µM | SK-MEL-28 24.3 µM | HOP-92 15.3 µM | SR 3.13 µM | OVCAR-5 38.5 µM | HOP-62 38.3 µM | COLO 205 21.5 µM

COCc1cc2c(cc1/C(=C/[N+](=O)[O-])CS(=O)(=O)c1ccccc1)OCO2
inactive: HT-29 > 100 µM | DU-145 > 100 µM | Hs-578T > 100 µM | MCF7 > 100 µM | A498 > 100 µM | SK-OV-3 > 100 µM | U-251 > 100 µM | T47D > 100 µM | NCI/ADR-RES > 100 µM | HCC 2998 > 100 µM | M14 > 100 µM | SK-MEL-28 > 100 µM | HOP-92 > 100 µM | SR > 100 µM | OVCAR-5 > 100 µM | HOP-62 > 100 µM | COLO 205 > 100 µM

O=C1/C(=C\c2cccs2)Oc2ccccc21
inactive: HT-29 63.7 µM | DU-145 50.9 µM | Hs-578T 45.7 µM | MCF7 28.9 µM | A498 42.3 µM | SK-OV-3 38 µM | U-251 51.6 µM | SK-MEL-2 > 100 µM | T47D 2.99 µM | NCI/ADR-RES 54.7 µM | HCC 2998 64.6 µM | M14 84.5 µM | SK-MEL-28 > 100 µM | HOP-92 35.2 µM | SR > 100 µM | OVCAR-5 > 100 µM | HOP-62 39.9 µM | COLO 205 75.3 µM

COc1cccc(NCC(=O)Nn2c(-c3ccccc3)nc3ccccc3c2=O)c1
inactive: HT-29 > 100 µM | DU-145 > 100 µM | Hs-578T > 100 µM | Malme-3M > 100 µM | MCF7 52.2 µM | A498 17.6 µM | SK-OV-3 > 100 µM | U-251 > 100 µM | T47D > 100 µM | NCI/ADR-RES > 100 µM | HCC 2998 > 100 µM | M14 > 100 µM | SK-MEL-28 > 100 µM | HOP-92 49.3 µM | SR > 100 µM | OVCAR-5 > 100 µM | HOP-62 > 100 µM | COLO 205 > 100 µM

Cn1c(N/N=C/c2ccccc2)nc(-c2ccc([N+](=O)[O-])cc2)c(C#N)c1=O
inactive: HT-29 45.7 µM | DU-145 34.7 µM | Hs-578T 55.1 µM | Malme-3M 33.1 µM | MCF7 13.1 µM | A498 65.8 µM | SK-OV-3 > 100 µM | U-251 66.1 µM | SK-MEL-2 34.4 µM | T47D 97.9 µM | NCI/ADR-RES 86.3 µM | M14 > 100 µM | SK-MEL-28 > 100 µM | HOP-92 16.5 µM | SR 2.63 µM | OVCAR-5 38.6 µM | HOP-62 77.8 µM | COLO 205 44.2 µM
